Experimental data from patent US20230052017A1, “New compounds for treatment of diseases related to DUX4 expression” (Facio Intellectual Property B.V., priority 2019, published 2023).

System: DUX4
Test: DUX4 repression assay in primary FSHD cells (protocol of Example 2 of WO2019/115711)
Format: cell-based, human
Conditions: incubated 72 hours, reference compounds
Excerpt: Following the central role of DUX4 in the consensus disease hypothesis for FSHD, a therapeutic approach with a disease-modifying potential is expected to rely on the inhibition of DUX4. The inventors have identified the compounds according to the invention as being able to achieve DUX4 repression in muscle cells. This invention has been made using primary FSHD patient-derived muscle cells. Because of the primate-specificity of the FSHD locus and questionable relevance of recombinant, immortalized, or tumorigenic cell or animal models to study endogenous DUX4 regulatory mechanisms, primary patient-derived muscle cells are the most relevant disease model. Assays based on immortalized cells bear the risk of altered epigenomes, thereby limiting their relevance in studying the endogenous regulation of DUX4 expression. Particularly the subtelomeric location of D4Z4 and the importance of the D4Z4 epigenome in the stability of DUX4 repression (Stadler et al., 2013, DOI: 10.1038/nsmb.2571) underscore the necessity of using primary muscle cells to discover physiologically relevant drug targets that regulate the expression of DUX4.
The DUX4 repression of compounds of general formula (I) was assayed following a known protocol (the protocol of Example 2 of WO2019/115711). Several compounds were incubated with primary FSHD cells for 72 hours. Results are shown in Table 4, showing DUX4 Count % inhibition.

SMILES	DUX4 count % inhibition
O=C(Cn1cnc(-c2ccc(F)cc2)c1-c1cccnc1)N1CCNCC1 [Compound 108, 2-[4-(4-fluorophenyl)-5-(pyridin-3-yl)-1H-imidazol-1-yl]-1-(piperazin-1-yl)ethan-1-one]	6.6%
CN1CCN(C(=O)Cc2nn(C(C)(C)C)c(-c3ccc(F)cc3)c2-c2ccncc2)CC1 [Compound 106, 2-[1-tert-butyl-5-(4-fluorophenyl)-4-(pyridin-4-yl)-1H-pyrazol-3-yl]-1-(4-methylpiperazin-1-yl)ethan-1-one]	17.3%
CN1CCN(C(=O)Cn2cnc(-c3ccc(F)cc3)c2-c2cccnc2)CC1 [Compound 107, 2-[4-(4-fluorophenyl)-5-(pyridin-3-yl)-1H-imidazol-1-yl]-1-(4-methylpiperazin-1-yl)ethan-1-one]	10.7%
